In publication PMC12686490 (Nature Communications, 2025):
Numbered stars: 1 amine (or outer) side, 2 acyl side, 3 side chain; on linkers, the order of the positions; unused ones are H or OH. Bridge positions count the residues as written; N and C are the ends. Square brackets hold non-standard residues; d marks the D form. Peptide text beside a SMILES is read from it. X1 = O=C(C1(O)C[C@H](O)[C@@H](N[*:1])[C@H]([C@H](O)[C@H](O)CO)O1)[*:2]; X2 = CC(=O)NC(C(=O)OC(C(C)C)C(N[*:1])C(=O)[*:2])C(O)C(C)C; NMeW = CN[C@@H](Cc1c[nH]c2ccccc12)C(=O)O; Phe(3-Br) = N[C@@H](Cc1cccc(Br)c1)C(=O)O; PhLac = O=C(O)[CH](O)Cc1ccccc1; NMeT = CN[CH](C(=O)O)[CH](C)O; Nle = CCCC[C@H](N)C(=O)O; NMeA = CN[CH](C)C(=O)O; NMeDha = C=C(NC)C(=O)O

Assays:
GPR173 / β-arrestin1 = GPR173 / β-arrestin1 (Homo sapiens, UniProt Q9NS66); test: BRET-based β-arrestin1 assay, 293T-GPR173 cells; assay type: cell-based; details: up to 10 μM
GPR173 / β-arrestin2 = GPR173 / β-arrestin2 (Homo sapiens, UniProt Q9NS66); test: BRET-based β-arrestin2 assay, 293T-GPR173 cells; assay type: cell-based; details: up to 10 μM
[1] = tested on: CCKBR-LTP in the auditory cortex; test: MEA recording, drug plus LFS-induced LTP in auditory cortex slices; parameters: species or system mouse; details: 200 nM, 10 min, AC slices of C57 mice
[2] = tested on: CCKBR-LTP in the auditory cortex; test: MEA recording, TBS-induced CCKBR-LTP in auditory cortex slices of C57 mice; parameters: species or system mouse; details: for Effect on TBS-induced CCKBR-LTP: one-hour preincubation: 100 nM YF476, 10 μM U-73122, 50 μM 2-APB, 20 μM YM254890, 100 μM barbadin, 10 μM H-89, 300 ng PTX injected into AC 24-48 h before
CCKBR [3] = target: T1, CCKBR (Homo sapiens, UniProt P32239); test: PRESTO-Tango assay; assay type: cell-based; details: screening
T1 sequence (P32239 1-447): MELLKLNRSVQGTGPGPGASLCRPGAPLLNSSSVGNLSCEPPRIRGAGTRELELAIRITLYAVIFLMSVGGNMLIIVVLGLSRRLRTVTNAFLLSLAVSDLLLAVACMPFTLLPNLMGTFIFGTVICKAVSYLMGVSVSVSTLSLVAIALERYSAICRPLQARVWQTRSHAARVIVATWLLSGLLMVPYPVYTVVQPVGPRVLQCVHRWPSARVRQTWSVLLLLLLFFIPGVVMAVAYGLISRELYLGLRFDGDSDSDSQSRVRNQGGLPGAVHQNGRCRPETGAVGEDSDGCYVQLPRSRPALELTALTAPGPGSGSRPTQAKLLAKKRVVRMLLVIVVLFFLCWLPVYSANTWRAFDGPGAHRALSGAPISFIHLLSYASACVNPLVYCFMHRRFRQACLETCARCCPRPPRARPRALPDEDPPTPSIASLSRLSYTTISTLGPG

CCKBR [4] = target: T1, CCKBR; test: Calcium mobilization assay; assay type: cell-based; details: screening

Chain of GPR173 / β-arrestin2 (Q9NS66 whole entry): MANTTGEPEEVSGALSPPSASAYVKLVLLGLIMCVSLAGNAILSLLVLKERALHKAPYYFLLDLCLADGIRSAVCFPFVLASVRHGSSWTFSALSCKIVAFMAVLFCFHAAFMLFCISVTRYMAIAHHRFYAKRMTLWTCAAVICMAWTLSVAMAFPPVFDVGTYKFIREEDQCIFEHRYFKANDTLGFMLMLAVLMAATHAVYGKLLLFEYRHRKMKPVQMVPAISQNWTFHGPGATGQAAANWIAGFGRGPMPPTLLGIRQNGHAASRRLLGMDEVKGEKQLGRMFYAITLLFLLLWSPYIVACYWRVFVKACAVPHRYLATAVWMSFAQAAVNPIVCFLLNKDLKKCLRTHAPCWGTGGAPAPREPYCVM
Chain of GPR173 / β-arrestin1 (Q9NS66 whole entry): as above

SMILES | Effect on TBS-induced CCKBR-LTP [2] | further results
CSCC[C@H](NC(=O)[C@H](Cc1ccc(OS(=O)(=O)O)cc1)NC(=O)[C@@H](N)CC(=O)O)C(=O)NCC(=O)N[C@@H](Cc1c[nH]c2ccccc12)C(=O)N[C@@H](CCSC)C(=O)N[C@@H](CC(=O)O)C(=O)N[C@@H](Cc1ccccc1)C(N)=O [CCK8s] | – | Activation of β-arrestin1 downstream of GPR173 (GPR173 / β-arrestin1): could activate; Activation of β-arrestin2 downstream of GPR173 (GPR173 / β-arrestin2): could activate; LTP induction by drug with LFS (fEPSP amplitude) [1]: induced LTP
O=S(=O)(NCCNC/C=C/c1ccc(Br)cc1)c1cccc2cnccc12 [H-89] | partially inhibited | –
NCCOB(c1ccccc1)c1ccccc1 [2-APB] | significantly and almost completely inhibited | –
C=C1C(=O)NC(C)C(=O)N(C)C(C)C(=O)NC(C(OC(=O)C(NC(C)=O)C(O)C(C)C)C(C)C)C(=O)N(C)C(C(C)OC)C(=O)OC(C)C(NC(C)=O)C(=O)OC(Cc2ccccc2)C(=O)N1C (stereo not drawn) [YM254890] (Ac-T[PhLac][NMeDha]A[NMeA][X2][NMeT](Me); ester 1-C; configuration not given here) | significantly and almost completely inhibited | –
CNc1cccc(NC(=O)N[C@@H]2N=C(c3ccccn3)c3ccccc3N(CC(=O)C(C)(C)C)C2=O)c1 [YF476] | confirmed that the LTP was CCKBR-dependent | –
Nn1cnc2scc(-c3ccc(Cc4ccccc4)cc3)c2c1=O [barbadin] | could not inhibit | Effect on the inhibition of TBS-induced LTP by MF-8 ([2]; 2-h preincubation of barbadin + 200 nM MF-8): could indeed eliminate the inhibitory effect of MF-8
CCCC[C@H](NC(=O)[C@H](Cc1c[nH]c2ccccc12)N(C)C(=O)C1(O)C[C@H](O)[C@@H](NC(C)=O)[C@H]([C@H](O)[C@H](O)CO)O1)C(=O)N[C@@H](CC(=O)O)C(=O)N[C@@H](Cc1cccc(Br)c1)C(N)=O (stereo partly drawn) [MF-7] (Ac-[X1][NMeW][Nle]D[Phe(3-Br)]-NH2) | – | Induction of β-arrestin2 signaling (CCKBR [3]): highly potent; Activation of Gαq/11-Ca2+ signaling (CCKBR [4]): performed poorly
COc1ccc2c(c1)CC[C@@H]1[C@@H]2CC[C@]2(C)[C@@H](NCCCCCCN3C(=O)C=CC3=O)CC[C@@H]12 [U-73122] | significantly and almost completely inhibited | –
